From patent US7875587B2, “Peptide analogues of GIP for treatment of diabetes, insulin resistance and obesity” (UUTECH Limited, priority 2004, dated 2011)
Like-named read-outs stand apart in the source and are kept apart here. No end group written: not given here.

Columns and labels:
[1] = test system: BRIN-BD11 cells; experiment: Acute tests for insulin secretion from BRIN-BD11 cells; assay type: cell-based; details: 5.6 and 16.7 mM glucose, 10^-13 to 10^-8 M peptide
Description: Culture of insulin secreting cells. BRIN-BD11 cells were cultured in sterile tissue culture flasks (Corning, Glass Works, UK) using RPMI-1640 tissue culture medium containing 10% (v/v) foetal calf serum, 1% (v/v) antibiotics (100 U/ml penicillin, 0.1 mg/ml streptomycin) and 11.1 mM glucose. The cells were maintained at 37° C. in an atmosphere of 5% CO2 and 95% air using a LEEC incubator (Laboratory Technical Engineering, Nottingham, UK).
Acute tests for insulin secretion. Before experimentation, the cells were harvested from the surface of the tissue culture flasks with the aid of trypsin/EDTA (Gibco), seeded into 24-multiwell plates (Nunc, Roskilde, Denmark) at a density of 1.5×10^5 cells per well, and allowed to attach overnight at 37° C. Acute tests for insulin release were preceded by 40 minutes pre-incubation at 37° C. in 1.0 ml Krebs Ringer bicarbonate buffer (115 mM NaCl, 4.7 mM KCl, 1.28 mM CaCl2, 1.2 mM KH2PO4, 1.2 mM MgSO4, 10 mM NaHCO3, 5 g/l bovine serum albumin, pH 7.4) supplemented with 1.1 mM glucose. Test incubations were performed (n=12) at two glucose concentrations (5.6 mM and 16.7 mM) with a range of concentrations (10^−13 to 10^−8 M) of GIP or GIP analogues. After 20 minutes incubation, the buffer was removed from each well and aliquots (200 μl) were used for measurement of insulin by radioimmunoassay.

[2] = target: T1, DPP IV (Sus scrofa, UniProt P22411); experiment: Degradation of GIP and analogues by DPP IV (HPLC); assay type: in vitro ADME; details: for resistance to in vitro degradation with DPP IV relative to native GIP: Example 3, summary of Table 1; for % Intact peptide remaining after time (h) / remaining at 2 h, 1 mmol/l / remaining at 4 h, 1 mmol/l / remaining at 8 h, 1 mmol/l / remaining at 24 h, 1 mmol/l: incubation with DPP IV; for % Intact peptide remaining after time (h): 0 h; for remaining at 2 h, 1 mmol/l / remaining at 4 h, 1 mmol/l / remaining at 8 h, 1 mmol/l / remaining at 24 h, 1 mmol/l: isolated enzyme dpp iv, pH 7.8, read-out: % Intact peptide remaining after time (h)
T1 construct: purchased Sigma (Poole, Dorset, UK)
T1 sequence (P22411 whole entry): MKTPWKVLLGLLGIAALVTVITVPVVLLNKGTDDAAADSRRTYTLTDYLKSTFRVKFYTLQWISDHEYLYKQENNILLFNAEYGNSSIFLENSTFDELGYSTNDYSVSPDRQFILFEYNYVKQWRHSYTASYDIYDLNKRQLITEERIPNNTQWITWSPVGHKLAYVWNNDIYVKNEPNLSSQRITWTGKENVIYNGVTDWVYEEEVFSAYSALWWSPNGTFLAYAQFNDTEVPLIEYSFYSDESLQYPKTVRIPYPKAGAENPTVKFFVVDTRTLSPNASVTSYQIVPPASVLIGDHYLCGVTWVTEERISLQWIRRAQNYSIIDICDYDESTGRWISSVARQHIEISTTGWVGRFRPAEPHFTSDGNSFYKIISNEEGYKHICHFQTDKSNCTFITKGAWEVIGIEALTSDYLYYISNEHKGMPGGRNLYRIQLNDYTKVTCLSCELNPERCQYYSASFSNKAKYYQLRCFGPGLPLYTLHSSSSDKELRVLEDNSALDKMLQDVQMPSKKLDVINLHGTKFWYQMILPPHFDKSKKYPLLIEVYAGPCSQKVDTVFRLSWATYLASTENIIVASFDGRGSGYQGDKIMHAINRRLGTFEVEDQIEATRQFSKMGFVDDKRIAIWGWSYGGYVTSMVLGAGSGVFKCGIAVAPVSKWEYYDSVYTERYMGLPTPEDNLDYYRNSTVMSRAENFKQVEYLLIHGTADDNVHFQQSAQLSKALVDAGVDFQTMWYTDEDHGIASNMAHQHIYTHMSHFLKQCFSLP
Description: Degradation of GIP and Tyr^1-glucitol GIP by DPP IV. HPLC-purified GIP or Tyr^1-glucitol GIP were incubated at 37° C. with DPP-IV (5 mU) for various time periods in a reaction mixture made up to 500 μl with 50 mmol/l triethanolamine-HCl, pH 7.8 (final peptide concentration 1 mmol/l). Enzymatic reactions were terminated after 0, 2, 4 and 12 hours by addition of 5 μl of 10% (v/v) TFA/water. Samples were made up to a final volume of 1.0 ml with 0.12% (v/v) TFA and stored at −20° C. prior to HPLC analysis.
(§1) HPLC analysis of degraded GIP and Tyr^1-glucitol GIP. […] Using 0.1% (v/v) TFA in 70% acetonitrile/H20, the concentration of acetonitrile in the eluting solvent was raised from 0% to 31.5% over 15 min, to 38.5% over 30 minutes and from 38.5% to 70% over 5 minutes, using linear gradients. The absorbance was monitored at 206 nm and peak areas evaluated using a model 2221 LKB integrator. Samples recovered manually were concentrated using a Speed-Vac concentrator.
(§2) Electrospray ionization-mass spectrometry (ESI-MS) was carried out as described in Example 2. Degradation of GIP and novel GIP analogues by DPP IV and human plasma was carried out as described in Example 2.

[3] = Degradation of GIP and analogues by human plasma (HPLC); assay type: in vitro ADME; details: for % Intact peptide remaining after incubations with human plasma: 0 h; for effect of DPA on plasma degradation of the peptide: 24 hours in the presence of DPA; for remaining at 2 h, 20 µg/ml / remaining at 4 h, 20 µg/ml / remaining at 8 h, 20 µg/ml / remaining at 24 h, 20 µg/ml: human, plasma, read-out: % Intact peptide remaining after incubations with human plasma; for remaining at 2 h, 20 µg/ml: pH 7.8, 2 h; for remaining at 4 h, 20 µg/ml: pH 7.8, 4 h; for remaining at 8 h, 20 µg/ml: pH 7.8, 8 h
Description: Degradation of GIP and Tyr^1-glucitol GIP by human plasma. […] […] The reactions were terminated by addition of 5 μl of TFA and the final volume adjusted to 1.0 ml using 0.1% v/v TFA/water. Samples were centrifuged (13,000 g, 5 minutes) and the supernatant applied to a C-18 Sep-Pak cartridge (Millipore-Waters) which was previously primed and washed with 0.1% (v/v) TFA/water. […] The volume was adjusted to 1.0 ml with 0.12% (v/v) TFA/water prior to HPLC purification.
as §1, §2

[4] = pH 7.8, 24 hours in the presence of DPA (diprotin A)

Compound	insulin secretion from BRIN-BD11 cells [1]	resistance to in vitro degradation with DPP IV relative to native GIP [2]	% Intact peptide remaining after time (h) [2] [%]	remaining at 2 h, 1 mmol/l [2] [%]	remaining at 4 h, 1 mmol/l [2] [%]	remaining at 8 h, 1 mmol/l [2] [%]	remaining at 24 h, 1 mmol/l [2] [%]	% Intact peptide remaining after incubations with human plasma [3] [%]	effect of DPA on plasma degradation of the peptide [3]	remaining at 2 h, 20 µg/ml [3] [%]	remaining at 4 h, 20 µg/ml [3] [%]	remaining at 8 h, 20 µg/ml [3] [%]	remaining at 24 h, 20 µg/ml ([3]; pH 7.8, 24 h) [%]	remaining at 24 h, 20 µg/ml [3, 4] [%]	plasma degradation ([3]; Example 3, summary of Table 2)	effect of DPP IV inhibitor on degradation of GIP by plasma [3]
CC[C@H](NC(=O)[C@@H](N)Cc1ccc(O)cc1)C(=O)N[C@@H](CCC(=O)O)C(=O)NCC(=O)N[C@H](C(=O)N[C@@H](Cc1ccccc1)C(=O)N[C@H](C(=O)N[C@@H](CO)C(=O)N[C@@H](CC(=O)O)C(=O)N[C@@H](Cc1ccc(O)cc1)C(=O)N[C@@H](CO)C(=O)N[C@H](C(=O)N[C@@H](C)C(=O)N[C@@H](CCSC)C(=O)N[C@@H](CC(=O)O)C(=O)N[C@@H](CCCCN)C(=O)N[C@H](C(=O)N[C@@H](Cc1c[nH]cn1)C(=O)N[C@@H](CCC(N)=O)C(=O)N[C@@H](CCC(N)=O)C(=O)N[C@@H](CC(=O)O)C(=O)N[C@@H](Cc1ccccc1)C(=O)N[C@H](C(=O)N[C@@H](CC(N)=O)C(=O)N[C@@H](Cc1c[nH]c2ccccc12)C(=O)N[C@@H](CC(C)C)C(=O)N[C@@H](CC(C)C)C(=O)N[C@@H](C)C(=O)N[C@@H](CCC(N)=O)C(=O)N[C@@H](CCCCN)C(=O)NCC(=O)N[C@@H](CCCCN)C(=O)N[C@@H](CCCCN)C(=O)N[C@@H](CC(N)=O)C(=O)N[C@@H](CC(=O)O)C(=O)N[C@@H](Cc1c[nH]c2ccccc12)C(=O)N[C@@H](CCCCN)C(=O)N[C@@H](Cc1c[nH]cn1)C(=O)N[C@@H](CC(N)=O)C(=O)N[C@H](C(=O)N[C@H](C(=O)N[C@@H](CCC(N)=O)C(=O)O)[C@@H](C)O)[C@@H](C)CC)C(C)C)[C@@H](C)CC)[C@@H](C)CC)[C@@H](C)CC)[C@@H](C)O [GIP (Abu^2)]	complex pattern of responsiveness dependent on glucose concentration and dose employed	more resistant than native GIP	100	38 ± 1	28 ± 2	0	0	100	complete abolition of degradation	38 ± 1	28 ± 2	0	0	100		
CC[C@H](C)[C@H](NC(=O)[C@H](CO)NC(=O)[C@H](Cc1ccc(O)cc1)NC(=O)[C@H](CC(=O)O)NC(=O)[C@H](CO)NC(=O)[C@@H](NC(=O)[C@H](Cc1ccccc1)NC(=O)[C@@H](NC(=O)CNC(=O)[C@H](CCC(=O)O)NC(=O)CN(C)C(=O)[C@@H](N)Cc1ccc(O)cc1)[C@@H](C)O)[C@@H](C)CC)C(=O)N[C@@H](C)C(=O)N[C@@H](CCSC)C(=O)N[C@@H](CC(=O)O)C(=O)N[C@@H](CCCCN)C(=O)N[C@H](C(=O)N[C@@H](Cc1c[nH]cn1)C(=O)N[C@@H](CCC(N)=O)C(=O)N[C@@H](CCC(N)=O)C(=O)N[C@@H](CC(=O)O)C(=O)N[C@@H](Cc1ccccc1)C(=O)N[C@H](C(=O)N[C@@H](CC(N)=O)C(=O)N[C@@H](Cc1c[nH]c2ccccc12)C(=O)N[C@@H](CC(C)C)C(=O)N[C@@H](CC(C)C)C(=O)N[C@@H](C)C(=O)N[C@@H](CCC(N)=O)C(=O)N[C@@H](CCCCN)C(=O)NCC(=O)N[C@@H](CCCCN)C(=O)N[C@@H](CCCCN)C(=O)N[C@@H](CC(N)=O)C(=O)N[C@@H](CC(=O)O)C(=O)N[C@@H](Cc1c[nH]c2ccccc12)C(=O)N[C@@H](CCCCN)C(=O)N[C@@H](Cc1c[nH]cn1)C(=O)N[C@@H](CC(N)=O)C(=O)N[C@H](C(=O)N[C@H](C(=O)N[C@@H](CCC(N)=O)C(=O)O)[C@@H](C)O)[C@@H](C)CC)C(C)C)[C@@H](C)CC [GIP (Sar^2)]	complex pattern of responsiveness dependent on glucose concentration and dose employed	less resistant	100	28 ± 2	8	0	0	100		28 ± 2	8	0	0	100	resistance to plasma degradation	
CC[C@H](C)[C@H](NC(=O)[C@H](CO)NC(=O)[C@H](Cc1ccc(O)cc1)NC(=O)[C@H](CC(=O)O)NC(=O)[C@H](CO)NC(=O)[C@@H](NC(=O)[C@H](Cc1ccccc1)NC(=O)[C@@H](NC(=O)CNC(=O)[C@H](CCC(=O)O)NC(=O)[C@H](C)NC(=O)[C@H](Cc1ccc(O)cc1)NC(C)=O)[C@@H](C)O)[C@@H](C)CC)C(=O)N[C@@H](C)C(=O)N[C@@H](CCSC)C(=O)N[C@@H](CC(=O)O)C(=O)N[C@@H](CCCCN)C(=O)N[C@H](C(=O)N[C@@H](Cc1c[nH]cn1)C(=O)N[C@@H](CCC(N)=O)C(=O)N[C@@H](CCC(N)=O)C(=O)N[C@@H](CC(=O)O)C(=O)N[C@@H](Cc1ccccc1)C(=O)N[C@H](C(=O)N[C@@H](CC(N)=O)C(=O)N[C@@H](Cc1c[nH]c2ccccc12)C(=O)N[C@@H](CC(C)C)C(=O)N[C@@H](CC(C)C)C(=O)N[C@@H](C)C(=O)N[C@@H](CCC(N)=O)C(=O)N[C@@H](CCCCN)C(=O)NCC(=O)N[C@@H](CCCCN)C(=O)N[C@@H](CCCCN)C(=O)N[C@@H](CC(N)=O)C(=O)N[C@@H](CC(=O)O)C(=O)N[C@@H](Cc1c[nH]c2ccccc12)C(=O)N[C@@H](CCCCN)C(=O)N[C@@H](Cc1c[nH]cn1)C(=O)N[C@@H](CC(N)=O)C(=O)N[C@H](C(=O)N[C@H](C(=O)N[C@@H](CCC(N)=O)C(=O)O)[C@@H](C)O)[C@@H](C)CC)C(C)C)[C@@H](C)CC [N-Acetyl-GIP]		more resistant than native GIP	100	100	100	100										
Ile-Pro-Ile [diprotin A, reference compound]																completely inhibited degradation of the peptide by plasma
YSEGTFISDYSIAMDKIHQQDFVNWLLAQKGKKNDWKHNITQ-OH [GIP (Ser^2)]	strong response	more resistant than native GIP	100	77 ± 2	60 ± 1	32 ± 4	0	100	complete abolition of degradation	77 ± 2	60 ± 1	32 ± 4	0	63 ± 3		
